Assay results: patent US20240156836A1, “METHODS OF TREATING TE[…]” (priority 2018, published 2024)

How the values were obtained:
[1] = Description: Testosterone undecanoate is metabolized into testosterone. Its degradation in whole blood into testosterone has been studied in conditions typically used in clinical trials.
Prior to discharge from the clinical facility, the subjects will be instructed to take 396 mg TU by mouth immediately prior to their dinner meal on Day 1, then twice daily on Days 2-6 immediately prior to their breakfast and dinner meals, and on Day 7 in the morning, immediately prior to their breakfast meal.
Subjects will return to the Clinic on Day 7 in the late afternoon (before dinner) with their study medication. Upon arrival at the clinic, their study drug will be counted to determine compliance during Day 1 through Day 7 post-AM dose. They will then be administered the study drug 396 mg TU by mouth immediately prior to a dinner meal (containing 30 g fat) which will be provided. Subjects will be instructed to consume the dinner in approximately 20 minutes. Subjects will remain in the unit overnight.
On the 8th day, 5 hrs after their AM meal, blood is collected in plain, EDTA and NaF-EDTA tubes. The plain tubes sit at room temperature (RT). The EDTA and NaF-EDTA tubes are placed on ice.
Samples will be collected into multiple Plain, EDTA and NaF-EDTA tubes. The Plain tube will be incubated at RT to allow blood clotting, as recommended by Clinical and Laboratory Standards Institute (CLSI 2010). […]

[2] = Dose titration concordance analysis (C6 vs Cavg) in hypogonadal men treated with oral TU; assay type: in vivo
From the text: One of the goals of this study was to determine whether the T concentration in blood samples collected into Plain tubes (yielding serum) can be used for making dose titration decisions. In previous studies, dose titration decisions were based on T concentrations in NaF-EDTA plasma.
The goal of dose-titration in men treated with oral TU is to bring the testosterone Cavg into the eugonadal range. Because titration decisions based on testosterone Cavg are not practical in real world clinical setting, single sample T concentrations can be used as surrogates of Cavg. Concordance analysis estimates how well dose titration based on two different measures (e.g., Cavg v. C6) work in guiding dose titration. […] However, to determine total concordance, effective off-diagonal titration also must be determined. Effective off-diagonal titration can be estimated for the following reasons. […] Second, the titration boundaries (425 to 970 ng/dL) fall within the eugonadal boundaries (300 to 1100 ng/dL), and the eugonadal range is wide (3.5 fold) compared to the largest dose increment (33%) or decrement (25%). This means that the dose increments/decrements employed can allow movement within the eugonadal range (e.g. increasing the dose of someone with a Cavg of 400 ng/dL will raise the Cavg to a maximum of 532 ng/dL [400×1.33]). Similarly, when titration decisions based on C6 are different from those based on Cavg, the outcome will often be a Cavg in the eugonadal range. For example, when a patient's C6 is less than 425 ng/dL (indicating a dose increase is required), but whose Cavg is 600 ng/dL (indicating no titration), the impact of titrating based on C6 is that the Cavg will increase but remain in the eugonadal range. The largest dose increase will result in a 33% increase in exposure which, in this case, will raise the Cavg to 798 ng/dL. Therefore, despite titration based on C6, this patient's Cavg is not likely to rise above the upper boundary of the eugonadal range. Thus, the titration decision based on C6 is effectively concordant with that based on Cavg, since both titration decisions will result in a patient with a Cavg in the eugonadal range. Selected cells in Table 3 indicate a patient's Cavg that would result in effective off-diagonal titration. Therefore, when comparing the effectiveness of dose-titration decisions based on C6 and Cavg, both concordance (on-diagonal agreement between C6 and Cavg) and effective off-diagonal agreement must be considered) [i.e., total concordance (percent of patients treated with oral TU who fall into given concordance boxes) is defined as the sum of on-diagonal and effective off-diagonal concordance (see area in Table 3 defined by heavy line). In the example presented, the C6 value is a serum value derived from a measured NaF-EDTA plasma value and a conversion factor that enables the conversion of NaF-EDTA plasma data to be converted to an equivalent serum data.
These reflect an on-diagonal concordance of 75% and 63% and an effective off-diagonal titration decision of 24% and 36% for Visit 2 and Visit 4b, respectively. Therefore, dose titration based on C6 can effectively adjust a patient's oral TU dose such that their Cavg is in the eugonadal range.

Question: Which results are given for `CCCCCCCCCCC(=O)O[C@H]1CC[C@H]2[C@@H]3CCC4=CC(=O)CC[C@]4(C)[C@H]3CC[C@]12C` [TU, testosterone undecanoate]?
Answer: degradation of TU in whole blood into testosterone [1]: degrades extensively to testosterone; percent of patients ([2]; Visit 2, C6 425-970 ng/dL, Cavg 350-800 ng/dL): 15.2%; percent of patients ([2]; Visit 2, C6 425-970 ng/dL, Cavg <350 ng/dL): 5.4%; percent of patients ([2]; Visit 2, C6 425-970 ng/dL, Cavg >800 ng/dL): 2%; percent of patients ([2]; Visit 2, C6 425-970 ng/dL, Total): 22.6%; percent of patients ([2]; Visit 2, C6 <425 ng/dL, Cavg 350-800 ng/dL): 13.9%; percent of patients ([2]; Visit 2, C6 <425 ng/dL, Cavg <350 ng/dL): 59.4%; percent of patients ([2]; Visit 2, C6 <425 ng/dL, Cavg >800 ng/dL): 0%; percent of patients ([2]; Visit 2, C6 <425 ng/dL, Total): 73.3%; percent of patients ([2]; Visit 2, C6 >970 ng/dL, Cavg 350-800 ng/dL): 4.2%; percent of patients ([2]; Visit 2, C6 >970 ng/dL, Cavg <350 ng/dL): 0%; percent of patients ([2]; Visit 2, C6 >970 ng/dL, Cavg >800 ng/dL): 0.6%; percent of patients ([2]; Visit 2, C6 >970 ng/dL, Total): 4.8%; percent of patients ([2]; Visit 2, Total, Cavg 350-800 ng/dL): 33.3%; percent of patients ([2]; Visit 2, Total, Cavg <350 ng/dL): 64.8%; percent of patients ([2]; Visit 2, Total, Cavg >800 ng/dL): 2.6%; percent of patients ([2]; Visit 4b, C6 425-970 ng/dL, Cavg 350-800 ng/dL): 25%; percent of patients ([2]; Visit 4b, C6 425-970 ng/dL, Cavg <350 ng/dL): 10%; percent of patients ([2]; Visit 4b, C6 425-970 ng/dL, Cavg >800 ng/dL): 0.6%; percent of patients ([2]; Visit 4b, C6 425-970 ng/dL, Total): 35.6%; percent of patients ([2]; Visit 4b, C6 <425 ng/dL, Cavg 350-800 ng/dL): 21.8%; percent of patients ([2]; Visit 4b, C6 <425 ng/dL, Cavg <350 ng/dL): 37.5%; percent of patients ([2]; Visit 4b, C6 <425 ng/dL, Cavg >800 ng/dL): 0%; percent of patients ([2]; Visit 4b, C6 <425 ng/dL, Total): 59.3%; percent of patients ([2]; Visit 4b, C6 >970 ng/dL, Cavg 350-800 ng/dL): 4.3%; percent of patients ([2]; Visit 4b, C6 >970 ng/dL, Cavg <350 ng/dL): 0%; percent of patients ([2]; Visit 4b, C6 >970 ng/dL, Cavg >800 ng/dL): 0.6%; percent of patients ([2]; Visit 4b, C6 >970 ng/dL, Total): 4.9%; percent of patients ([2]; Visit 4b, Total, Cavg 350-800 ng/dL): 51.1%; percent of patients ([2]; Visit 4b, Total, Cavg <350 ng/dL): 47.5%; percent of patients ([2]; Visit 4b, Total, Cavg >800 ng/dL): 1.2%; testosterone exposure versus dose ([2]; men treated with oral TU): dose proportional
